Data taken from ChEMBL document CHEMBL1201862, “PubChem BioAssay data set” (2004).
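Test compounds were applied to cells in 96-well plates for 48 hours at 5 doses. GI50 marks 50% less growth.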 The source made the active and inactive calls. Rule as the data show it: active = GI50 up to about 1.1 µM and inactive = higher.

Legend:
Test in all cases: growth of human tumour cells (NCI), 48 h
IGROV-1 = system: IGROV-1
UACC-62 = system: UACC-62
SN12C = system: SN12C
NCI-H460 = system: NCI-H460
CCRF-CEM = system: CCRF-CEM
KM12 = system: KM12
RPMI-8226 = system: RPMI-8226
SF-539 = system: SF-539
M14 = system: M14
SNB-19 = system: SNB-19
TK-10 = system: TK-10
OVCAR-3 = system: OVCAR-3
HCC 2998 = system: HCC 2998
COLO 205 = system: COLO 205
SF-268 = system: SF-268
HL-60 = system: HL-60
SK-OV-3 = system: SK-OV-3
K562 = system: K562
HOP-62 = system: HOP-62
UACC-257 = system: UACC-257

Measured: GI50

COc1ccc(-c2c3ccccc3c(-c3ccc(OCCCCCBr)cc3)c3ccccc23)cc1
inactive: IGROV-1 > 100 µM | UACC-62 > 100 µM | SN12C > 100 µM | NCI-H460 > 100 µM | CCRF-CEM > 100 µM | KM12 > 100 µM | RPMI-8226 > 100 µM | SF-539 > 100 µM | M14 > 100 µM | SNB-19 > 100 µM | TK-10 > 100 µM | OVCAR-3 > 100 µM | HCC 2998 > 100 µM | COLO 205 > 100 µM | SF-268 > 100 µM | HL-60 > 100 µM | SK-OV-3 > 100 µM | K562 > 100 µM | HOP-62 > 100 µM

Cc1ccc2c(=O)c3ccccc3sc2c1
inactive: IGROV-1 > 100 µM | UACC-62 > 100 µM | SN12C > 100 µM | NCI-H460 > 100 µM | CCRF-CEM > 100 µM | KM12 53.7 µM | RPMI-8226 > 100 µM | SF-539 > 100 µM | M14 > 100 µM | SNB-19 66.4 µM | TK-10 > 100 µM | OVCAR-3 > 100 µM | HCC 2998 > 100 µM | COLO 205 > 100 µM | SF-268 > 100 µM | HL-60 26.9 µM | SK-OV-3 > 100 µM | K562 > 100 µM | HOP-62 > 100 µM

COc1ccc(N2CN(C)CSC2=S)cc1
inactive: IGROV-1 77.6 µM | UACC-62 > 100 µM | SN12C > 100 µM | NCI-H460 76 µM | CCRF-CEM 13.1 µM | UACC-257 > 100 µM | KM12 > 100 µM | RPMI-8226 32.3 µM | SF-539 > 100 µM | M14 38.5 µM | SNB-19 > 100 µM | TK-10 > 100 µM | OVCAR-3 4.73 µM | HCC 2998 > 100 µM | COLO 205 > 100 µM | SF-268 97.9 µM | HL-60 72.8 µM | SK-OV-3 27.1 µM | K562 21.1 µM | HOP-62 25.9 µM
